# Laboratory results reported in patent US7091240B2, “Tubulin binding ligands and corresponding prodrug constructs” (Oxigene, Inc., priority 2000, dated 2006).
# Where two headings read alike, the source gives them in different places.
# Tests used:
# purified tubulin = assay: Inhibition of tubulin polymerization assay; type: biochemical, bovine; settings: for IC50: read-out: IC50 In Vitro Inhibition of Tubulin Polymerization, 1.5 mg/ml tubulin, preincubated 15 minutes at 37° C., GTP-induced
# Description: IC50 values for tubulin polymerization were determined according to a previously described procedure (Bai et al, Cancer Research, 1996). Purified tubulin is obtained from bovine brain cells as described in Hamel and Lin (Hamel and Lin, Biochemistry, 1984). Various amounts of inhibitor were preincubated for 15 minutes at 37° C. with purified tubulin. After the incubation period, the reaction was cooled and GTP was added to induce tubulin polymerization. Polymerization was then monitored in a Gilford spectrophotometer at 350 nm. The final reaction mixtures (0.25 ml) contained 1.5 mg/ml tubulin, 0.6 mg/ml microtubule-associated proteins (MAPs), 0.5 mM GTP, 0.5 mM MgCl2, 4% DMSO and 0.1M 4-morpholineethanesulfonate buffer (MES, pH 6.4).
# BXPC-3 = assay: In vitro cytotoxicity against human cancer cell lines (SRB); type: cell-based; settings: pancreas; 48 hours incubation
# Description: (§1) Briefly, the cell suspensions, diluted according to the particular cell type and the expected target cell density (5,000–40,000 cells per well based on cell growth characteristics), were added by pipet (100 μl) to 96-well microtiter plates. Inoculates were allowed a preincubation time of 24–28 hours at 37° C. for stabilization. Incubation with the inhibitor compounds lasted for 48 hours in 5% CO2 atmosphere and 100% humidity. Determination of cell growth was performed by in situ fixation of cells, followed by staining with a protein-binding dye sulforhodamine B (SRB), which binds to the basic amino acids of cellular macromolecules. The solubilized stain was measured spectrophotometrically.
# (§2) Compounds were evaluated in terms of growth inhibitory activity against several human cancer cell lines including: central nervous system (“CNS”, SF-295 or SF-268), pancreas (BXPC-3), non-small cell lung cancer (“lung-NSC”, NCI-H460), breast (MCF-7), colon (KM20L2), ovarian (OVCAR-3), pharyngeal (FADU), or prostate (DU-145).
# DU-145 = assay: as above; type: cell-based; settings: prostate; 48 hours incubation
# Description: as §1, §2
# KM20L2 = assay: as above; type: cell-based; settings: colon; 48 hours incubation
# Description: as §1, §2
# MCF-7 = assay: as above; type: cell-based; settings: breast; 48 hours incubation
# Description: as §1, §2
# NCI-H460 = assay: as above; type: cell-based; settings: lung-NSC; 48 hours incubation
# Description: as §1, §2
# SF-268 = assay: as above; type: cell-based; settings: CNS; 48 hours incubation; values marked *
# Description: as §1, §2
# [1] = test system: murine hemangioendothelioma MHEC-5T cell line; assay: In vitro antiproliferative activity, MTT assay; type: cell-based
# Description: The following compounds were tested for in vitro antiproliferative activity against the murine hemangioendothelioma MHEC-5T cell line using a standard MTT assay (see Mosman, J. Immunol. Methods, 1983). In actively proliferating cells, an increase in MTT conversion is spectrophotometrically quantified by the reduction of MTT (3-[4,5-dimethylthiazol-2-yl]-2,5-diphenyl tetrazolium bromide) to the insoluble formazan dye by enzymes associated with metabolic activity. A compound with growth inhibitory activity will cause a reduction in dye formation relative to cells exposed to a vehicle control.
# [2] = test system: MHEC-5T hemangioendothelioma tumor model; assay: Inhibition of tumor blood flow, Fluorescent Bead Assay; type: in vivo; settings: single i.p. injection, 24 hours post-treatment, SCID mice
# Description: The antivascular effects of the diphosphate BbF, Oxi-com 223, was assessed in tumor-bearing mice using a Fluorescent Bead Assay. A MHEC-5T hemangioendothelioma tumor model was established by subcutaneous injection of 0.5×10^6 cultured transformed cell murine myocardial vascular endothelial cell line (“MHEC5-T”) cells into the right flank of Fox Chase CB-17 Severe Combined Immunodeficient (“SCID”) mice. […] At 24 hours post-treatment, mice were injected intravenously with 0.25 ml of diluted FluoSphere beads (1:6 in physiological saline) in the tail vein, sacrificed after 3 minutes, and tumor was excised for cryosectioning. Tumor cryosections at a thickness of 8 μm were directly examined using quantitative fluorescent microscopy. Blood vessels were indicated by blue fluorescence from injected beads. For quanitification, image analysis of 3 sections from three tumors treated in each group were examined and vascular shutdown was expressed as vessel area (mm^2) per tumor tissue area (mm^2) as a percentage of the control (“% VAPM”). Compounds of the present invention were tested for antivascular effects at two dosages (100 mg/kg and 10 mg/kg) using the same Fluorescent Bead Assay as in the previous experiment.
# SF-295 = assay: In vitro cytotoxicity against human cancer cell lines (SRB); type: cell-based; settings: CNS; 48 hours incubation; unstarred values
# Description: as §1, §2
# FADU = assay: as above; type: cell-based; settings: pharyngeal; 48 hours incubation
# Description: as §1, with “The activity of several compounds were tested against a variety of cell lines derived from human tumors, using an assay system similar to a procedure previously described (Monks et al, J. Natl. Cancer Inst., 1991). Briefly,” for “Briefly,”
# as §2
# OVCAR-3 = assay: as above; type: cell-based; settings: ovarian; 48 hours incubation
# Description: as §1, with “The activity of several compounds were tested against a variety of cell lines derived from human tumors, using an assay system similar to a procedure previously described (Monks et al, J. Natl. Cancer Inst., 1991). Briefly,” for “Briefly,”
# as §2
# In vitro cytotoxicity = type: cell-based
# [3] = test system: human breast cancer MDA-MB-231 model; assay: Tumor growth control in vivo; settings: 400 mg/kg i.p. in saline, SCID mice, Days 1, 2 and 6 post-treatment
# Description: The antitumor activity of BbT prodrug 8 was assessed in female tumor-bearing mice by measuring its effects on tumor volume in comparison with CA4P. A human breast cancer MDA-MB-231 model was established by subcutaneous injection of cultured M DA-MB-231 cells (1×10^6) in Fox Chase CB-17 SCID mice.
# Mice were administered CA4P or BbT prodrug in saline carrier at 400 mg/kg by intraperitoneal (i.p.) injection after 1 week of MDA-MB inoculation. Saline carrier only was used as the control treatment. On Days 1, 2 and 6 post-treatment, tumors were measured by width and length by a caliber. Tumor volume was calculated according to the following formula: Length×Width^2×0.4. The relative anti-tumor effects are illustrated in FIG. 9.
# [4] = 5 days, read-out: IC50 at 5 days
# [5] = read-out: IC50 at 1 hour, 1 hour
IC50 (purified tubulin) [µM],Compound,GI50 for Cell Line BXPC-3 (BXPC-3) [µg/mL],GI50 for Cell Line DU-145 (DU-145) [µg/mL],GI50 for Cell Line NCI-H460 (NCI-H460) [µg/mL],"IC50 [1, 4] [µM]","IC50 [1, 5] [µM]",other results
–,"COc1ccc2c(C(=O)c3cc(OC)c(OC)c(OC)c3)c(-c3ccc(OC)c(OP(=O)([O-])[O-])c3)oc2c1.[Na+].[Na+] [Oxi-com 223, 33, 3-(3′,4′,5′-trimethoxybenzoyl)-2-(3′-disodiumphosphate-4′-methoxyphenyl)-6-methoxybenzo[b]furan]",–,–,–,> 1.4,> 50,% VAPM at 10 mg/kg dose ([2]; 10 mg/kg): 10%; % VAPM at 100 mg/kg dose ([2]; 100 mg/kg): 51%
1 to 4,"COc1ccc2c(-c3ccc(OC)c(O)c3O)coc2c1 [Compound 28, 3-(2′,3′-hydroxy-4′-methoxyphenyl)-6-methoxybenzo[b]furan]",–,–,–,–,–,–
–,"C#C/C=C\C#CC(=O)c1cc(OC)c(OC)c(OC)c1 [Enediyne, 47, 1-(3,4,5-trimethoxybenzoyl)-(Z)-3-ene-1,5-hexadiyne]",1.4,0.54,1.7,–,–,inhibition of tubulin polymerization (in words) (purified tubulin): excellent inhibition of tubulin polymerization; GI50 for Cell Line SF-295 (SF-295): 1.7 µg/mL; GI50 for Cell Line FADU (FADU): 0.95 µg/mL; GI50 for Cell Line OVCAR-3 (OVCAR-3): 0.53 µg/mL; cytotoxicity (in words) (In vitro cytotoxicity): strong cytotoxicity
–,"COc1ccc(/C=C\c2cc(OC)c(OC)c(OC)c2)cc1OP(=O)([O-])[O-].[Na+].[Na+] [CA4P, Combretastatin A-4 Disodium Phosphate Prodrug, reference compound]",–,–,–,0.002,0.8,effect on tumor growth (tumor volume) relative to control treatment [3]: significantly inhibited tumor growth
–,"COc1ccc2c(C(=O)c3cc(OC)c(OC)c(OC)c3)c(-c3ccc(OC)c(OP(=O)([O-])[O-])c3)sc2c1.[Na+].[Na+] [Oxi-com 140, 8, 3-(3′,4′,5′-trimethoxybenzoyl)-2-(3′-sodiumphosphate-4′-methoxyphenyl)-6-methoxybenzo[b]thiophene]",0.35,0.045,0.035,0.129,> 11.2,GI50 for Cell Line KM20L2 (KM20L2): 0.22 µg/mL; GI50 for Cell Line MCF-7 (MCF-7): 0.028 µg/mL; GI50 for Cell Line SF-295 (SF-295): 0.11 µg/mL; effect on tumor growth (tumor volume) relative to control treatment [3]: significantly inhibited tumor growth
1 to 4,"COc1ccc2c(-c3ccc(OC)c(O)c3O)c(C(=O)c3cc(OC)c(OC)c(OC)c3)oc2c1 [Compound 31, 3-(2″,3″-dihydroxy-4″-methoxyphenyl)-6-methoxy-2-(3′,4′,5′-trimethoxybenzoyl)benzo[b]furan]",–,–,–,–,–,–

Compound,IC50 (purified tubulin) [µM],GI50 for Cell Line BXPC-3 (BXPC-3) [µg/mL],GI50 for Cell Line DU-145 (DU-145) [µg/mL],GI50 for Cell Line NCI-H460 (NCI-H460) [µg/mL],"IC50 [1, 4] [µM]","IC50 [1, 5] [µM]",other results
"COc1ccc2c(C(=O)c3cc(OC)c(OC)c(OC)c3)c(-c3ccc(OC)c(OP(=O)([O-])[O-])c3)oc2c1.[Na+].[Na+] [Oxi-com 195, 19, 2-(3″-disodiumphosphate-4″-methoxyphenyl)-6-methoxy-3-(3′,4′,5′-trimethoxybenzoyl)benzo[b]furan]",4 to 10,2.3,0.05,0.05,0.1,> 25,GI50 for Cell Line KM20L2 (KM20L2): 3.8 µg/mL; GI50 for Cell Line MCF-7 (MCF-7): 0.042 µg/mL; GI50 for Cell Line SF-268 (SF-268): *0.062 μg/ml
